Assay [1] addresses T1, Protein farnesyltransferase (Homo sapiens, UniProt P49354+P49356). As to the kind of experiment: In vitro inhibition of Human farnesyl transferase. Type of assay: protein-complex assay.
Assay [2] concerns the target T2, Protein farnesyltransferase (Mus musculus, UniProt Q61239+Q8K2I1). Kind of assay: Inhibition of farnesyl transferase in NIH3T3 cell based assay in non-reducing (-DTT) conditions. Type of assay: functional.
In assay [3] the target is T2, Protein farnesyltransferase. Kind of assay: Inhibition of farnesyl transferase in NIH3T3 cell based assay under reducing (+DTT) conditions. In kind it is functional.
In assay [4] the target is T1, Protein farnesyltransferase. Kind of assay: In vitro inhibition of farnesyl transferase. In kind it is protein-complex assay.
For assay [5] the target is unchanged. Kind of assay: In vitro inhibition of farnesyl transferase enzyme (inactive). Type of assay: protein-complex assay.
Assay [6] deals with NIH3T3. Kind of assay: Inhibition of v-Raf-transformed NIH3T3 cell growth at 10 uM. To be noted: Mus musculus. In kind it is functional.
Assay [7] deals with NIH3T3. As to the kind of experiment: Inhibition of Ki-Ras-transformed NIH3T3 cell growth at 1 uM. Type of assay: functional. The following applies: Mus musculus.
The test system of assay [8] is NIH3T3. As to the kind of experiment: Inhibition of Ha-Ras-transformed NIH3T3 cell growth at 1 uM. In kind it is functional. To be noted: Mus musculus.
Assay [9] has as its system NIH3T3. As to the kind of experiment: Inhibition of Ki-Ras-transformed NIH3T3 cell growth at 5 uM. The following applies: Mus musculus. In kind it is functional.
In assay [10] the test system is NIH3T3. Kind of assay: Inhibition of Ha-Ras-transformed NIH3T3 cell growth at 10 uM. In kind it is functional. The following applies: Mus musculus.
Assay [11] has as its system NIH3T3. As to the kind of experiment: Inhibition of Ha-Ras-transformed NIH3T3 cell growth at 5 uM. In kind it is functional. The following applies: Mus musculus.
The test system of assay [12] is NIH3T3. As to the kind of experiment: Inhibition of Ki-Ras-transformed NIH3T3 cell growth at 10 uM. To be noted: Mus musculus. Type of assay: functional.
Assay [13] has as its target Protein farnesyltransferase (Bos taurus, UniProt P29702+P49355). As to the kind of experiment: In vitro inhibition of bovine farnesyl transferase. Type of assay: protein-complex assay.

A value given as a limit tells only on which side of the number the result lay.

For `CSCC[C@H](NC(=O)[C@@H]1Cc2ccccc2CN1C(=O)[C@H](C(C)C)N(C)C(=O)[C@@H](N)CS)C(=O)O`, in assay [1], the IC50 stood at 0.005 µM.
Regarding `CSCC[C@H](NC(=O)[C@@H]1Cc2ccccc2CN1C(=O)CN(CCSSCCN(CC(=O)N1Cc2ccccc2C[C@H]1C(=O)N[C@@H](CCSC)C(=O)O)C(=O)OC(C)(C)C)C(=O)OC(C)(C)C)C(=O)O`, the results for the IC50 in assay [2], in assay [3] and in assay [4] were > 1000 µM, > 1000 µM and > 100 µM, respectively.
With `CSCCC(NC(=O)C1Cc2ccccc2CN1CC(=O)NCCSSCCNC(=O)CN1Cc2ccccc2CC1C(=O)NC(CCSC)C(=O)O)C(=O)O` (stereo not given), the IC50 entry in [5] is “Not Active”.
As for `COC(=O)[C@H](CCSC)NC(=O)[C@@H]1Cc2ccccc2CN1C(=O)CN(CCSSCCN(CC(=O)N1Cc2ccccc2C[C@H]1C(=O)N[C@@H](CCSC)C(=O)OC)C(=O)OC(C)(C)C)C(=O)OC(C)(C)C`, the IC50 in assay [2] is > 1000 µM; in assay [3] it was > 1000 µM; in assay [4] it was > 100 µM.
In [4], `CSCCC(NC(=O)C1Cc2ccccc2CN1CC(=O)NCCS)C(=O)O` (stereo not given) gave a half-maximal inhibitory concentration (IC50) of 2 µM.
On the same count and under the same terms, as for `COC(=O)[C@H](CCSC)NC(=O)[C@@H]1Cc2ccccc2CN1C(=O)CNCCS`, the figure is 0.29 µM.
In the case of `COC(=O)C(CCSC)NC(=O)C1Cc2ccccc2CN1CC(=O)NCCSSCCNC(=O)CN1Cc2ccccc2CC1C(=O)NC(CCSC)C(=O)OC` (stereo not given), in [5], the IC50 entry is “Not Active”.
As for `COC(=O)[C@H](CCSC)NC(=O)[C@@H]1Cc2ccccc2CN1C(=O)CNCCSSCCNCC(=O)N1Cc2ccccc2C[C@H]1C(=O)N[C@@H](CCSC)C(=O)OC`, the IC50 in assay [2] is 100 µM; in assay [3], 100 µM; in assay [4], 0.145 µM. In addition, the inhibition at 10 µM in the assay with NIH3T3 [6] came out at 9%; with NIH3T3 [10], 91%; in the assay on NIH3T3 [12], 97%. Besides, the results for the inhibition at 1 µM with NIH3T3 [7] and with NIH3T3 [8] were 24% and 9%, respectively. Further, the inhibition at 5 µM stood at 89% in the assay on NIH3T3 [9] and 80% in the assay on NIH3T3 [11].
As for `COC(=O)C(CCSC)NC(=O)C1Cc2ccccc2CN1CC(=O)NCCS` (stereo not given), in [5], the IC50 result is recorded as “Not Active”.
As for `CSCC[C@H](NC(=O)[C@H](Cc1ccccc1)NC(=O)[C@@H](NC[C@@H](N)CS)C(C)C)C(=O)O`, 0.023 µM corresponded to half-maximal inhibition in assay [13] (IC50).
The same measure, in the same setting: next, `CSCC[C@H](NC(=O)[C@H](Cc1ccccc1)NC[C@@H](NC[C@@H](N)CS)C(C)C)C(=O)O`: 0.021 µM.
In the case of `CSCC[C@H](NC(=O)[C@@H]1Cc2ccccc2CN1C(=O)CNCCSSCCNCC(=O)N1Cc2ccccc2C[C@H]1C(=O)N[C@@H](CCSC)C(=O)O)C(=O)O`, the IC50 is > 1000 µM in assay [2], > 1000 µM in assay [3] and 0.05 µM in assay [4].
`CSCC[C@H](NC(=O)[C@@H]1Cc2ccccc2CN1C(=O)CNCCS)C(=O)O` showed an IC50 in assay [4] of 0.1 µM.
Still for that read-out and setting: as for `CSCC[C@H](NC(=O)[C@@H]1Cc2ccccc2CN1C(=O)CN(CCS)C(=O)OC(C)(C)C)C(=O)O`, the figure is > 100 µM.
On the same count and under the same terms, as for `COC(=O)[C@H](CCSC)NC(=O)[C@@H]1Cc2ccccc2CN1C(=O)CN(CCS)C(=O)OC(C)(C)C`, the figure is > 100 µM.

A word on the IC50: it is the concentration needed to halve the response being measured. Lower therefore signals greater potency. Broadly, the inhibition is how much of the control response was suppressed. A high value points to strong suppression.

These data come from ChEMBL document CHEMBL1151032, “Local constrained shifty pseudopeptides inhibitors of rasfarnesyl transferase” (Bioorg Med Chem Lett, 1995).
